Laboratory results from the CheMixHub viscosity set.
Where “and” joins values, the source holds several entries; their conditions need not be identical. Equal values may be shown once.

Tests used:
[1] = xn = mol fraction of the nth substance listed

CC[N+]1(C)CCCC1.COP(=O)([O-])OC
100 kPa
Settings	viscosity [mPa·s]
293.15 K	227.7
298.15 K	169.4
303.15 K	123.5
308.15 K	93.55
313.15 K	72.82
318.15 K	56.38
323.15 K	45.1

CCOC(=O)CCl
viscosity
Settings	303.15 K	308.15 K
101.3 kPa	1.013 mPa·s and 1.013 mPa·s	0.93 mPa·s and 0.93 mPa·s
101.33 kPa	1.007 mPa·s and 1.007 mPa·s	0.933 mPa·s and 0.933 mPa·s

C[N+](C)(C)C.[OH-]
100 kPa
Settings	viscosity [mPa·s]
298.15 K	2.77
303.15 K	2.71
308.15 K	2.62
313.15 K	2.56

CCOCCOCCOCC
viscosity [mPa·s]
Settings	298.15 K	308.15 K	318.15 K
101 kPa	1.268	–	–
101.33 kPa	1.268	1.048	0.881

CCCCCC(C)C
100 kPa
Settings	viscosity [mPa·s]
293.15 K	0.5
303.15 K	0.444
313.15 K	0.393
323.15 K	0.355

CCCC[n+]1ccn(C)c1C.F[B-](F)(F)F
Settings	viscosity [mPa·s]
298.15 K, 101 kPa	573

CCOS(=O)(=O)[O-].CC[N+](CC)=C(N(C)C)N(C)C
100 kPa
Settings	viscosity
293.15 K	190.9 mPa·s and 190.9 mPa·s
298.15 K	139 mPa·s and 139 mPa·s
303.15 K	104.9 mPa·s and 104.9 mPa·s
308.15 K	80.44 mPa·s and 80.44 mPa·s
313.15 K	63.24 mPa·s and 63.24 mPa·s
318.15 K	50.27 mPa·s and 50.27 mPa·s
323.15 K	40.55 mPa·s and 40.55 mPa·s

CCCCOCCO + Cc1ccccc1C
viscosity [mPa·s], [1], 101 kPa
Settings	298.15 K	308.15 K
x1 = 0.0549	0.797	0.686
x1 = 0.1475	0.891	0.756
x1 = 0.2508	1.004	0.84
x1 = 0.3485	1.129	0.933
x1 = 0.4527	1.286	1.052
x1 = 0.5	1.366	1.113
x1 = 0.5489	1.457	1.182
x1 = 0.6483	1.666	1.341
x1 = 0.7518	1.925	1.54
x1 = 0.8493	2.216	1.765
x1 = 0.9524	2.586	2.053

CCOCCOCCOCC + CCOC(=O)OCC
viscosity [mPa·s], [1], 101.33 kPa
Settings	298.15 K	308.15 K	318.15 K
x1 = 0.0221	0.763	0.667	0.584
x1 = 0.0409	0.776	0.675	0.592
x1 = 0.0945	0.812	0.699	0.609
x1 = 0.1858	0.863	0.741	0.643
x1 = 0.2214	0.89	0.758	0.656
x1 = 0.2775	0.923	0.784	0.677
x1 = 0.3669	0.972	0.822	0.707
x1 = 0.4971	1.041	0.879	0.747
x1 = 0.5997	1.092	0.917	0.775
x1 = 0.6836	1.133	0.947	0.801
x1 = 0.7747	1.17	0.979	0.825
x1 = 0.8683	1.214	1.009	0.849
x1 = 0.9296	1.239	1.027	0.862
x1 = 0.9694	1.255	1.04	0.871

CCOCCOCCOCC + ClCCl
[1], 298.15 K, 101 kPa
Settings	viscosity [mPa·s]
x1 = 0.0052	0.409
x1 = 0.0103	0.413
x1 = 0.0277	0.449
x1 = 0.0559	0.492
x1 = 0.0751	0.516
x1 = 0.1056	0.576
x1 = 0.1326	0.622
x1 = 0.1807	0.699
x1 = 0.2427	0.784
x1 = 0.2846	0.843
x1 = 0.3028	0.87
x1 = 0.3207	0.893
x1 = 0.3629	0.948
x1 = 0.4227	1.006
x1 = 0.445	1.031
x1 = 0.5119	1.096
x1 = 0.5582	1.131
x1 = 0.583	1.148
x1 = 0.6108	1.172
x1 = 0.6567	1.192
x1 = 0.7048	1.217
x1 = 0.7501	1.233
x1 = 0.803	1.246
x1 = 0.8457	1.264
x1 = 0.9124	1.268
x1 = 0.9488	1.269
x1 = 0.9709	1.27

CCOC(=O)CCl + CCCCCCCC
viscosity [mPa·s], [1], 101.33 kPa
Settings	x1 = 0.1027	x1 = 0.2003	x1 = 0.3048	x1 = 0.4033	x1 = 0.5064	x1 = 0.6021	x1 = 0.7042	x1 = 0.8031	x1 = 0.9017
298.15 K	0.524	0.553	0.586	0.618	0.666	0.718	0.782	0.855	0.953
303.15 K	0.493	0.518	0.551	0.577	0.621	0.669	0.723	0.796	0.884
308.15 K	0.465	0.487	0.519	0.541	0.584	0.624	0.676	0.741	0.82
